Measured values taken from US20240016805A1, “THERAPEUTIC METHODS AND COMPOSITIONS FOR TREATING PANCREATIC CANCER USING DEVIMISTAT” (Cornerstone Pharmaceuticals, Inc., priority 2020, published 2024).

What was measured:
[1] = tested on: advanced pancreatic cancer; settings: gemcitabine vs. fluorouracil (Burris 1997); cited from earlier work
metastatic PDA = settings: patients with metastatic PDA (Von Hoff 2013); cited from earlier work
[2] = tested on: metastatic pancreatic cancer; settings: metastatic pancreatic cancer (Conroy 2011); cited from earlier work
[3] = Animal studies of IV administration of devimistat (acute toxicity, local inflammation); type: in vivo
Method: Devimistat must be administered IV, via an IV catheter that is free flowing and free of air in the dead space of the IV catheter, to minimize vascular irritation, inflammation and acute toxicity of devimistat (Study NCL-049). […] To avoid local reactions at and around the site of administration, devimistat must be administered via a central venous catheter.
Devimistat must not be administered as a bolus, but by infusion, at a rate of ˜4 mL/min, via a central venous catheter with D5W running at a rate of about 125-150 mL/hr. This is to minimize potential acute toxicity of devimistat, according to animal studies.

[4] = Compatibility of devimistat with IV infusion sets, IV bags and syringes; type: physicochemical
Method: Therefore, DEHP-containing IV infusion sets, IV bags or syringes should not be used in mixing or administration of devimistat.
A compatibility study has been conducted showing that devimistat is compatible with 4 commonly used IV infusion sets. Therefore, these 4 types of IV infusion sets, and IV infusion sets that are made with the same materials, can be used to administer devimistat.
Compatibility studies have shown that devimistat drug product (50 mg/mL), and drug product diluted with D5W to various concentrations (1.6-25 mg/mL) are compatible with various types of syringes, as listed below. Therefore, any of these types of syringes, and syringes that are made with the same materials, can be used to administer devimistat. Also, glass syringes can also be used, since glass (such as glass containers) is compatible with devimistat drug product. • Norm-Ject, polyethylene barrel, polyethylene plunger, latex free (Henke Sass Wolf GMBH) syringes • Becton Dickinson syringes • Terumo syringes • Monoject syringes • Glass syringes

[5] = Adverse events and potential risks attributed to the study drugs; type: in vivo; settings: expected adverse event
Text: Probably related: Creatinine (expected Adverse Event).
Attribution is the relationship between an adverse event or serious adverse event and the study drug. Attribution will be assigned as follows: • Definite—The AE is clearly related to the study drug. • Probable—The AE is likely related to the study drug. • Possible—The AE may be related to the study drug. • Unlikely—The AE is doubtfully related to the study drug. • Unrelated—The AE is clearly NOT related to the study drug.

[6] = tested on: metastatic pancreatic cancer; settings: cited from earlier work
[7] = 18 patients who received the MTD, with mFOLFIRINOX

| Compound | overall survival [1] [months] | overall survival (metastatic PDA) [months] | progression free survival (PFS) (metastatic PDA) [months] | PFS [2] [months] | overall survival [2] [months] | partial response rate [2] [%] | effect of accidental co-administration of extra air in the dead space of IV catheters ([3]; animal studies, IV administration) | effect of accidental leakage into the perivascular space during IV administration ([3]; in vivo, iv) | compatibility with IV infusion sets ([4]; 4 commonly used IV infusion sets (PVC, latex, polyethylene)) | leaching of DEHP ([4]; DEHP-containing IV infusion sets and IV bags) | adverse events probably related [5] | Grade 1-2 toxicity observed [6, 7] | common grade 3/4 toxicities [6, 7] | specific risks attributed beyond the toxicities associated with mFOLFIRINOX ([6]; pilot Phase 1 study) |
| --- | --- | --- | --- | --- | --- | --- | --- | --- | --- | --- | --- | --- | --- | --- |
| Nc1ccn([C@@H]2O[C@H](CO)[C@@H](O)C2(F)F)c(=O)n1 [gemcitabine] | 5.6 | 6.7 | 3.7 | 3.3 | 6.8 | 9 |  |  |  |  |  |  |  |  |
| O=C(O)CCCCC(CCSCc1ccccc1)SCc1ccccc1 (stereo not drawn) [devimistat, 6,8-bis(benzylsulfanyl)octanoic acid] |  |  |  |  |  |  | potential to induce acute toxicity | can induce significant local inflammation | compatible | can cause leaching of DEHP | Creatinine | sensory neuropathy | hypokalemia, diarrhea, abdominal pain, hyperglycemia, peripheral neuropathy, neutropenia, lymphopenia, anemia, and thrombocytopenia | no specific risks that have been definitively observed and attributed to devimistat |
| O=c1[nH]cc(F)c(=O)[nH]1 [fluorouracil, 5-fluoro-1H-pyrimidine-2,4-dione] | 4.4 |  |  |  |  |  |  |  |  |  |  |  |  |  |
